According to patent EP4596561A1, “PHOSPHORUS-CONTAINING COMPOUND, PHARMACEUTICAL COMPOSITION AND USE THEREOF” (Suzhou Genhouse Bio Co., Ltd., priority 2022, dated 2024):
pIC50: −log10 of the molar value. Where two headings read alike, the source gives them in different places.

Experiments:
[1] = Pharmacokinetic test in mice (low dose); assay type: in vivo, Balb/c mice; conditions: mouse, in vivo
Procedure: The compounds of the present disclosure were administered to Balb/c mice by single intravenous injection and oral gavage, and the plasma of the mice at each time point was collected. The concentration of the compounds to be tested in BALB/C plasma was detected using the LC-MS/MS analysis method, and pharmacokinetic analysis was performed.
The mixture was vortexed, shaken, and ultrasonicated. The remaining volume of 25% sulfobutylether-β-cyclodextrin (sterilized) was added to prepare the final concentration solution or suspension.
Intravenous injection formulations will be directly administered in animal experiments without filtration. The IV drug preparation vials were disinfected in an infrared sterilization cabinet one day in advance.
Intravenous injection: Administration was performed via the tail vein. After the needle was inserted, the syringe was slowly […].
Gavage: Gavage needle and syringe of an appropriate type were selected. The gavage needle was inserted from the root of the tongue into the esophagus until it reached near the cardia of the stomach, then the drug formulation was injected, and the gavage needle was withdrawn. When disposable plastic gavage needles were used, one needle was used for each group.
At each time point, 60 µL of whole blood was collected from the submandibular vein or tail vein (except for the IV group). The blood sample was added to a pre-cooled anticoagulant blood collection tube containing anticoagulant EDTA-K2 (1 µL, 15% EDTA-K2 solution), placed on wet ice, and centrifuged (3000 g, 4 °C, 10 min) within 1 h. The plasma was immediately collected after centrifugation, transferred to an EP tube, and stored at -90 °C to -60 °C.
Plasma concentration detection: A developed LC-MS/MS method was used to detect the compounds in plasma.
The plasma concentration-time data were analyzed using a non-compartmental model in the Phoenix® WinNonlin® (Version 8.2, Pharsight, Mountain View, CA).

[2] = Saturated solubility in FaSSIF solution; assay type: physicochemical; conditions: room temperature, stirred overnight
Procedure: Efficacy Experimental Example 9: Test of Saturated Solubility of Samples in FaSSIF Solution
About 0.21 g of sodium hydroxide, about 2.24 g of sodium dihydrogen phosphate dihydrate, and 3.09 g of sodium chloride were weighed out and dissolved in 500 mL of water, and after dissolution, the pH was adjusted to 6.5 with 1 N sodium hydroxide or 1 N hydrochloric acid.
112 mg of FaSSIF solid was weighed out and placed in a 50 mL volumetric flask, and the buffer described above was added for dissolution. The resulting solution was diluted to volume, mixed well, and left to stand at room temperature for 2 h or more.
Test sample: About 1 mg of the test sample was taken, and 1 mL of FaSSIF solution was added. The mixture was stirred at room temperature overnight and centrifuged, and the supernatant was collected and injected for analysis.
Reference sample solution: About 1.5 mg of the test sample was precisely weighed out and placed in a 50 mL volumetric flask, and DMF was added for dissolution. The resulting solution was diluted to volume and mixed well.
The peak of the main component of the reference sample and the peak of the test sample with the same retention time were integrated, and the concentration thereof in the FaSSIF solution was calculated according to the external standard method.

in vivo = conditions: mouse, plasma, po, 200 mg/kg
Procedure: After adding 5% DMSO, the mixture was vortexed. 15% HS15 was then added, and the mixture was vortexed again. Finally, a 10% aqueous cyclodextrin solution was added, and the resulting mixture was vortexed to prepare the final concentration solution or suspension.

[3] = test system: YAP-TEAD transcription complex; experiment: YAP-TEAD reporter gene assay (dual luciferase, stably transfected 293T cells); assay type: cell-based; conditions: Homo sapiens, HEK-293T
Procedure: YAP-TEAD reporter gene The YAP-TEAD reporter gene assay was performed as follows. Firstly, the 8xGTIIC promoter sequence ([…] GTACTGTTGGTAAA) was constructed into a pGL4.20(luc2-Puro) plasmid, and the TK promoter ([…]) unrelated to the hippo pathway was constructed into a pGL4.78(hRlucCP/Hygro) plasmid, thereby constructing stably transfected 293T cells that can stably and continuously express the transcriptional activity of the YAP-TEAD transcription complex. After selection and identification of individual clones, the clones were grown and maintained in a DMEM medium containing 10% fetal bovine serum, penicillin-streptomycin solution, 1 µg/mL puromycin, and 150 µg/mL hygromycin. To perform reporter gene assays with the compounds to be tested, the well-growing cells described above were plated in a 384-well plate at a cell density of 3000 cells per well, with 90 µL per well. The periphery was sealed with an appropriate amount of PBS to prevent evaporation of water from the peripheral wells. Administration was performed on the next day after the cell plating. The test compounds were added at different concentration gradients, and three replicate wells were set for each concentration point. The compound concentration started at 5 µM and was diluted seven times with a 5-fold gradient. A corresponding negative control group treated with DMSO was also set up. After 24 h of drug treatment, the detection reagents were prepared first. The Dual-Lumi™ Firefly luciferase detection reagent and Dual-Lumi™ Renilla luciferase detection buffer were dissolved and brought to room temperature. […]. According to the amount of 100 µL of Dual-Lumi™ Renilla luciferase detection working solution required for the detection of each sample, an appropriate amount of Dual-Lumi™ Renilla luciferase detection working solution was prepared. […]. The cell culture plate was taken out and allowed to equilibrate at room temperature for 10 min (usually no more than 30 min). Then, 100 µL of Dual-Lumi™ Firefly luciferase detection reagent was added to each well of a 96-well plate (25 µL per well for the 384-well plate), and the mixture was mixed well. The mixture was then incubated at room temperature (about 25 °C) for 10 min to stabilize the luminescent signal, and then chemiluminescence was detected using a multimode microplate reader with a chemiluminescence detection function. Subsequently, the detection of Renilla luciferase began. Firstly, 100 µL of Dual-Lumi™ Renilla luciferase detection working solution was added to each well of a […] (25 µL per well for the 384-well plate), and the mixture was mixed well. The mixture was then incubated at room temperature (about 25 °C) for 10 min to stabilize the luminescent signal. Finally, chemiluminescence was detected using a multimode microplate reader with a chemiluminescence detection function. The obtained data were analyzed using GraphPad Prism 7.0 software. A sigmoidal dose-survival rate curve was plotted using a non-linear regression model, and the IC50 values were calculated.

[4] = test system: NCI-H2452 (NF2 wide-type); experiment: Inhibition of cell proliferation (CellTiter-Lumi); assay type: cell-based; conditions: Homo sapiens, 72 h + another 72 h treatment
Procedure: (§1) NCI-H2052 (NF2 mutant), NCI-H226 (NF2 mutant), NCI-H2452 (NF2 wide-type), NCI-H28 (NF2 wide-type), and MSTO-211H (NF2 wide-type) cells were cultured in RPMI 1640 complete media.
(§2) The normally growing cells described above were digested with a trypsin cell-digesting solution, centrifuged, counted, and then plated in a 96-well plate at a density of 1000 cells per well. Administration was performed 24 h after the cell plating. Inhibitors at different concentration gradients were added at 10 µL per well, and three replicate wells were set for each concentration point. The starting concentration was 20 µM and diluted 8 times with a 4-fold gradient. A corresponding negative control group treated with 0.1% DMSO was also set up. After 72 h of drug treatment, the cell culture plate to be tested was taken out of the incubator. The culture medium in the 96-well plate was pipetted, and 190 µL of fresh RPMI 1640 complete medium was added. Another administration was performed, and the cells were cultured for another 72 h. The 96-well plate was taken out and allowed to equilibrate at room temperature for 10 min. […] After shaking for two minutes, the mixture was reacted at room temperature for 10 min. Then, 150 µL of liquid was pipetted from the transparent 96-well plate and transferred to a white 96-well plate for chemiluminescence reading. The background value was subtracted from the value for each well to calculate the cell survival rate. Survival rate (%) = […]. Sample is the chemiluminescence of the drug-treated group, and Vehicle is the […] of the DMSO control group. A sigmoidal dose-survival rate curve was plotted using a non-linear regression model in the GraphPad Prism 7.0 software, and the IC50 values or GI50 values were calculated.

NCI-H28 (NF2 wide-type) = experiment: Inhibition of cell proliferation (CellTiter-Lumi); assay type: cell-based; conditions: Homo sapiens, 72 h + another 72 h treatment
Procedure: as §1, §2

[5] = 293T reporter cells, 24 h of drug treatment, read-out: IC50

Structure (SMILES): CC(C)NC(=O)c1ccc2c(Oc3ccc(C(F)(F)F)cc3)cccc2c1 [Comparative compound B1, reference compound]
- bioavailability ([1]; Balb/c): 81%
- AUC(0-t) ([1]; Balb/c, iv, 2 mg/kg): 1.24 µM·h
- clearance ([1]; Balb/c, iv, 2 mg/kg): 70.8 mL/min/kg
- half-life ([1]; Balb/c, iv, 2 mg/kg): 1.4 h
- AUC(0-t) ([1]; Balb/c, po, 10 mg/kg): 4.87 µM·h
- Cmax ([1]; Balb/c, po, 10 mg/kg): 0.653 µM
- half-life ([1]; Balb/c, po, 10 mg/kg): 5.6 h

Structure (SMILES): CNS(=O)(=O)c1ccc2c(Oc3ccc(C(F)(F)F)cc3)cccc2c1 [Comparative compound B2, reference compound]
- FaSSIF(pH = 6.5) [2]: 16.4 ug/mL
- AUC(0-t) (in vivo): 902 µM·h
- bioavailability ([1]; Balb/c): 87.5%
- AUC(0-t) ([1]; Balb/c, iv, 2 mg/kg): 8.75 µM·h
- clearance ([1]; Balb/c, iv, 2 mg/kg): 6.03 mL/min/kg
- half-life ([1]; Balb/c, iv, 2 mg/kg): 19.6 h
- AUC(0-t) ([1]; Balb/c, po, 10 mg/kg): 52.8 µM·h
- Cmax ([1]; Balb/c, po, 10 mg/kg): 4.21 µM
- half-life ([1]; Balb/c, po, 10 mg/kg): 9.3 h

Structure (SMILES): CNS(=O)(=O)c1ccc(Nc2ccc(C(F)(F)F)cc2)c(-c2cn(C)cn2)c1 [Comparative compound B3, reference compound]
- FaSSIF(pH = 6.5) [2]: 14.0 ug/mL
- AUC(0-t) (in vivo): 1040 µM·h

Structure (SMILES): CNS(=O)(=O)c1cnc(Oc2ccc(C(F)(F)F)cc2)c(-c2cn3c(n2)CCC3)c1 [Comparative compound B4, reference compound]
- FaSSIF(pH = 6.5) [2]: 36.2 ug/mL

Structure (SMILES): CP(C)(=O)c1cnc(Oc2ccc(C(F)(F)F)cc2)c(-c2cn3c(n2)CCC3)c1 [Example 9]
- MRT ([1]; mice, IV 2 mg/kg): 1.7 h
- AUC(0-t) ([1]; mice, IV 2 mg/kg, read-out: AUClast): 5.74 µM·h
- clearance ([1]; mice, IV 2 mg/kg, read-out: Cl (converted)): 13.3 mL/min/kg
- half-life ([1]; mice, IV 2 mg/kg, read-out: T1/2 (converted)): 1.4 h
- MRT ([1]; mice, PO 10 mg/kg): 3.2 h
- bioavailability ([1]; mice, PO 10 mg/kg vs IV 2 mg/kg, read-out: F%): 111%
- AUC(0-t) ([1]; mice, PO 10 mg/kg, read-out: AUClast): 30.5 µM·h
- Cmax ([1]; mice, PO 10 mg/kg, read-out: Cmax): 9.37 µM
- half-life ([1]; mice, PO 10 mg/kg, read-out: T1/2 (converted)): 1.9 h
- pIC50 ([3]; 24 h): 6.80

Structure (SMILES): Cn1ccc(-c2cc(P(C)(C)=O)cnc2Nc2ccc(C(F)(F)F)cc2)n1 [Example 17]
- pIC50 [4]: < 5.90
- pIC50 (NCI-H28 (NF2 wide-type)): 6.02
- pIC50 [3, 5]: 7.93

Structure (SMILES): CP(C)(=O)c1ccc(Nc2ccc(C(F)(F)F)cc2)c(-c2cn3c(n2)CCC3)c1 [Example 21]
- pIC50 ([3]; 24 h): 8.13

Structure (SMILES): Cn1cnc(-c2cc(P3(=O)CCOCC3)ccc2Nc2ccc(C(F)(F)F)cc2)c1 [Example 23]
- pIC50 ([3]; 24 h): 7.56

Structure (SMILES): CCc1ccc(Oc2cccc3cc(P(C)(C)=O)ccc23)cc1 [Example 25]
- pIC50 [4]: < 4.70
- pIC50 (NCI-H28 (NF2 wide-type)): < 4.70

Structure (SMILES): CP(C)(=O)c1ccc2c(Oc3ccc(C4CC4)cc3)cccc2c1 [Example 26]
- pIC50 [4]: < 5.30
- pIC50 (NCI-H28 (NF2 wide-type)): < 5.30

Structure (SMILES): CP(C)(=O)c1ccc2c(Oc3ccc(OC(F)(F)F)cc3)cccc2c1 [Example 27]
- pIC50 [4]: < 4.70
- pIC50 (NCI-H28 (NF2 wide-type)): < 5.30

Structure (SMILES): CP(C)(=O)c1ccc2c(Oc3ccc(Cl)cc3)cccc2c1 [Example 28]
- pIC50 [4]: < 4.30
- pIC50 (NCI-H28 (NF2 wide-type)): < 4.70
- pIC50 [3, 5]: 6.55

Structure (SMILES): Cn1cnc(-c2cc(P(C)(C)=O)ccc2Nc2ccc3c(c2)OC(F)(F)O3)c1 [Example 30]
- pIC50 ([3]; 24 h): 7.63

Structure (SMILES): Cn1cnc(-c2cc(P(C)(C)=O)ccc2Nc2ccc(S(F)(F)(F)(F)F)cc2)c1 [Example 31]
- pIC50 [3, 5]: 7.21

Structure (SMILES): Cn1cnc(-c2cc(P(C)(C)=O)ccc2Nc2ccc(Cl)cc2)c1 [Example 32]
- pIC50 ([3]; 24 h): 7.11

Structure (SMILES): CP(C)(=O)c1cnc(Nc2ccc(C(F)(F)F)cc2)c(-c2ccccn2)c1 [Example 33]
- pIC50 ([3]; 24 h): 7.70

Structure (SMILES): Cn1cnc(-c2cc(P(C)(C)=O)cnc2Nc2ccc3c(c2)OC(F)(F)O3)c1 [Example 34]
- pIC50 [4]: < 5.30
- pIC50 (NCI-H28 (NF2 wide-type)): < 5.30
- pIC50 [3, 5]: 6.72

Structure (SMILES): Cn1cnc(-c2cc(P(C)(C)=O)cnc2Nc2ccc(S(F)(F)(F)(F)F)cc2)c1 [Example 36]
- pIC50 [4]: < 4.70
- pIC50 (NCI-H28 (NF2 wide-type)): < 4.70
- pIC50 [3, 5]: 7.41

Structure (SMILES): CP(C)(=O)c1cnc(Nc2ccc(S(F)(F)(F)(F)F)cc2)c(-c2cn3c(n2)CCC3)c1 [Example 37]
- pIC50 ([3]; 24 h): 8.23

Structure (SMILES): CP(C)(=O)c1cnc(Nc2ccc(Cl)cc2)c(-c2cn3c(n2)CCC3)c1 [Example 38]
- pIC50 ([3]; 24 h): 7.54

Structure (SMILES): CP(C)(=O)c1cnc(Nc2ccc3c(c2)OC(F)(F)O3)c(-c2cn3c(n2)CCC3)c1 [Example 39]
- pIC50 [4]: < 5.90
- pIC50 (NCI-H28 (NF2 wide-type)): < 5.90
- pIC50 [3, 5]: 7.49
